Data as given in patent publication EP1125931A1, “Biocidal alkyl-substituted-(hetero)aryl-ketoxime-O-ethers and the production method thereof” (Hunan Research Institute of Chemical Industry, priority 2000, dated 2001).
Like-named read-outs stand apart in the source and are kept apart here.

How the values were obtained:
[1] = test system: leafhopper Nephotetlix cimeticeps; test: Test for the biological activity against leafhopper (rice seedling dip); type: in vivo; details: after 24 hours; for kill rate: at a lower concentration (than 250 ppm); for leafhoppers killed: concentration 250 ppm (content of effective component), average of 3 tests
Experimental: Emulsion oil or wettable powder of the alkyl-substituted-(hetero)aryl-ketoxime-o-ether, ketone intermediate, or active oxime compound of this invention prepared by the method described in the Example for preparing a controlling agent in agriculture was diluted with water to prepare a solution of agricultural chemical having a certain concentration. Rice seedlings (second semester) were dipped in the solution of agricultural agent for 5 seconds, and then removed. It was drained and then placed in a large test tube. Each test tube contained 20 seedlings. Then, 20 leafhoppers (5th instar) were introduced in the tube, and the mouth of the tube was covered with a white cheesecloth. The tube was kept at room temperature, and number of live and dead leafhoppers was examined after 24 hours. Test was run 3 times, and results were averaged.

[2] = test system: aphids Aphis fabae; test: Test for the biological activity against aphids (seedling dip); type: in vivo; details: after 24 hours; for lethal rate: at a lower concentration (than 250 ppm); for aphids killed: concentration 250 ppm (content of effective component), average of 3 tests
Experimental: Emulsion oil or wettable powder of the alkyl-substituted-(heteroaryl-ketoxime-o-ether, ketone intermediate or active oxime compound of this invention prepared by the method described in the Example for preparing a controlling agent in agriculture was diluted with water to prepare a solution of agricultural chemical having a certain concentration. Aphids were inoculated in the new seedlings (more than 15). Then, the seedlings, together with the aphids, were dipped in the solution of agricultural agent for 5 seconds, removed, and excess liquid was drained. They were placed in a water-absorbing sponge, and held by glass rods. After 24 hours, the number of live and dead aphids was examined. Test was run 3 times, and the results were averaged. With a series of compound (I) [Code No. 5, 8, 21, 22, 23, 30, 33, 46, 47, 48], the aphids were killed 100% when the concentration was 250 ppm (calculated as the content of effective component). Some compounds (I) [Code No. 5, 8, and 30 in Table 1] gave 100% lethal rate with the aphids, even at a lower concentration.

[3] = test system: Mythimne separata; test: Test for the biological activity against Mythimne separata (spray, Petri dish with corn fragments); type: in vivo; details: after 24 hours
Experimental: Emulsion oil or wettable powder of the alkyl-substituted-(hetero)aryl-ketoxime-o-ether, intermediate ketone, or the active oxime compound of this invention prepared by the procedure described in the Examples for preparing a controlling agent in agriculture described above was diluted with water to prepare a solution of agricultural chemical having a certain concentration.
Ten heads of Mythimne separata and 5 pieces of corn fragments were placed in a Petri dish, and it was sprayed with a certain amount of agricultural chemical solution. After the exposure, it was kept in a room for normal cultivation. After 24 hours, number of live and dead insects were counted. Test was run 3 times, and results were averaged. […] Some compounds (I) [such as Code No. 5, 8, and 30] shown in Table 1] gave 100% lethal rate even when the concentration was lower than 500 ppm.

[4] = test system: Spotted cutworm; test: Biological activity (LC50) against spotted cutworm; type: in vivo
[5] = test system: Green peach aphid; test: Biological activity (LC50) against green peach aphid; type: in vivo
[6] = test system: American tobacco cutworm; test: Biological activity (LC50) against American tobacco cutworm; type: in vivo
[7] = test system: Spinach army worm; test: Biological activity (LC50) against spinach army worm; type: in vivo
[8] = test system: fungal pathogens; test: Test for antifungal activity (mycelial growth on PDA media); type: cell-based; details: against one or more fungal pathogens; concentration 100 ppm; 72 hours of cultivation; read-out: growth inhibition rate
Experimental: Alkyl-substituted-(hetero)aryl-ketoxime-o-ether, ketone intermediate, or active oxime compound of this invention was diluted with an appropriate diluting agent (such as propanone) to prepare a parent solution having a certain concentration. One ml of this solution was taken with a pipette into 50 ml of molten PDA media. After shaking thoroughly, it was poured into two Petri dishes, to create duplicate. After cooling, a mycelial pad (diameter = about 4 mm) was taken and inoculated on the center of the culture dish. The diluting agent was used as the control. After inoculation, the dish was kept in an incubator set at an appropriate temperature. After 72 hours of cultivation, length (diameter of the colony) of the growth of mycelia was measured, and fungal growth inhibition rate was calculated.

[9] = concentration 500 ppm (content of effective component), average of 3 tests
[10] = concentration lower than 500 ppm

CSCC(=NOCc1cccc(Oc2ccccc2)c1)c1ccc(Cl)cc1 [Code No. 5] showed a kill rate [1] of 100%, a leafhoppers killed [1] of 100% and a lethal rate [2] of 100%. For the same compound, the aphids killed [2] was 100%, the lethal rate [3, 9] was “exceeding 100%” and the lethal rate [3, 10] was 100%.
CSC(C)C(=NOCc1cccc(Oc2ccccc2)c1)c1ccc(Cl)cc1 (stereo not shown) [Code No. 30 E-form, 1-(4-chlorophenyl)-2-methylthio-O-((3-phenoxyphenyl)methyl) 1-propanone oxime] was tested, and the LC50 ([4]; listed as 30 E-form) was “LC50 (ppm) < 1.5”, the LC50 ([5]; listed as 30 E-form) was “LC50 (ppm) < 15” and the LC50 ([6]; listed as 30 E-form) was “LC50 (ppm) < 5”. For the same compound, the LC50 ([7]; listed as 30 E-form) was “LC50 (ppm) < 5”.
For CSCC(=NOCc1cccc(Oc2ccccc2)c1)c1ccc(Cl)cc1 [Code No. 5 E-form], the LC50 [4] was “LC50 (ppm) < 5”, the LC50 [5] was “LC50 (ppm) > 100” and the LC50 [6] was “LC50 (ppm) < 10”. For the same compound, the LC50 [7] was “LC50 (ppm) < 5”.
For CSC(C)C(=NOCc1cccc(Oc2ccccc2)c1)c1ccc(Cl)cc1 (stereo not shown) [Code No. 30, 1-(4-chlorophenyl)-2-methylthio-O-((3-phenoxyphenyl)methyl) 1-propanone oxime], the kill rate [1] was 100%, the leafhoppers killed [1] was 100% and the lethal rate [2] was 100%. For the same compound, the aphids killed [2] was 100%, the lethal rate [3, 9] was “exceeding 100%” and the lethal rate [3, 10] was 100%.
In the case of CSC(C)C(=NOCc1cccc(Oc2ccccc2)c1)c1ccc(Cl)cc1 (stereo not shown) [Code No. 30 Z-form, 1-(4-chlorophenyl)-2-methylthio-O-((3-phenoxyphenyl)methyl) 1-propanone oxime], the LC50 ([4]; listed as 30 Z-form) is reported as “LC50 (ppm) > 150”, the LC50 ([5]; listed as 30 Z-form) is reported as “LC50 (ppm) > 150” and the LC50 ([6]; listed as 30 Z-form) is reported as “LC50 (ppm) > 150”. For the same compound, the LC50 ([7]; listed as 30 Z-form) was “LC50 (ppm) > 150”.
In the case of CSCC(=NO)c1ccc(Cl)cc1 [compound (III) Code No. 5, 1-(4-chlorophenyl)-2-methylthio ethanone oxime], the inhibition at 100 ppm [8] is reported as > 90%.
